Consider 15 compounds from patent publication US20230234943A1, “TREX1 INHIBITORS AND USES THEREOF” (Tempest Therapeutics, Inc., priority 2020, published 2023).

The structures appear in SMILES notation.

This experiment addresses T1, Human TREX1 enzyme (amino acids 1-242) (Homo sapiens, UniProt Q9NSU2).
T1 construct: Human TREX1 enzyme (amino acids 1-242)
T1 sequence (Q9NSU2 1-242): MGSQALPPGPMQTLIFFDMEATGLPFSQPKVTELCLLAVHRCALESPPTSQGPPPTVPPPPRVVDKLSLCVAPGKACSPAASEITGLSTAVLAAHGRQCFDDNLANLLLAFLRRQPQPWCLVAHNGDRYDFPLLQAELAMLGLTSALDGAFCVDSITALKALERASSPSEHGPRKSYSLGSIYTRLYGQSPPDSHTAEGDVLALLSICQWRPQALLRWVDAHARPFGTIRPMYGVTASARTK
Nature of the experiment: Human TREX1 enzymatic assay with dsDNA native oligonucleotide (Picogreen fluorescence). The experiment is classed as biochemical. The settings on record: 2 mM dithiothreitol in assay buffer; 50 nM dsDNA oligonucleotide; 30 min preincubation at 25° C.; read-out: TREX1/Human + DTT IC50 AVG. Put shortly: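 TREX1 (0.8–0.16 nM final) preincubated with compound (300 μM–13 nM or 30 μM–1.5 nM, 2% DMSO) 30 min at 25 °C in Tris pH 7.7, 5 mM MgCl2, 2 mM DTT. Annealed dsDNA (50 nM) added for 5–15 min at 25 °C; EDTA quench with Picogreen fluorescence readout.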
Consider `COc1cc(-c2nc3cc(N4CCN(C(=O)c5cccc(Cl)c5)CC4)ccc3[nH]2)cc(O)c1O` [Example 123, (3-chlorophenyl)(4-(2-(3,4-dihydroxy-5-methoxyphenyl)-1H-benzo[d]imidazol-5-yl)piperazin-1-yl)methanone], for which the IC50 lay in the range of 10000 to 100000 nM.
As to `COc1cc(-c2nc3ccncc3[nH]2)cc(C(=O)O)c1O` [Example 5, 2-hydroxy-5-(3H-imidazo[4,5-c]pyridin-2-yl)-3-methoxybenzoic acid], the IC50 was 1000 to 10000 nM.
Under `CCc1cc2nc(-c3cc(OC)c(O)c(O)c3F)n(C3(C)COC3)c2cn1` [Example 218, 4-[6-ethyl-3-(3-methyloxetan-3-yl)-3H-imidazo[4,5-c]pyridin-2-yl]-3-fluoro-6-methoxybenzene-1,2-diol] stands no more than 100 nM; under `COc1cc(-c2nc3ccc(CNc4ccccc4)cc3n2C2(C)COC2)c(F)c(O)c1O` [Example 236, 3-fluoro-6-methoxy-4-(1-(3-methyloxetan-3-yl)-6-((phenylamino)methyl)-1H-benzo[d]imidazol-2-yl)benzene-1,2-diol], 100 to 1000 nM.
On to `COc1cc(-c2nc3cc(NC(C)=O)ccc3n2C2(C)COC2)c(F)c(O)c1O` [Example 312, N-(2-(2-fluoro-3,4-dihydroxy-5-methoxyphenyl)-1-(3-methyloxetan-3-yl)-1H-benzo[d]imidazol-5-yl)acetamide], for which the IC50 was no more than 100 nM.
Under `CCOc1cc(-c2nc3ccccc3n2C2CCC2)cc(O)c1O` [Example 234, 5-(1-cyclobutyl-1H-1,3-benzodiazol-2-yl)-3-ethoxybenzene-1,2-diol] stands 1000 to 10000 nM; under `O=C(O)c1cc(F)c(-c2nc3ccncc3[nH]2)cc1O` [Example 120, 5-fluoro-2-hydroxy-4-(3H-imidazo[4,5-c]pyridin-2-yl)benzoic acid], 10000 to 100000 nM.
As for `CNC(=O)c1ccc2nc(-c3cc(OC)c(O)c(O)c3F)n(C3CCC3)c2c1` [Example 309, 1-cyclobutyl-2-(2-fluoro-3,4-dihydroxy-5-methoxyphenyl)-N-methyl-1H-benzo[d]imidazole-6-carboxamide], the IC50 was no more than 100 nM.
Under `COc1cc(-c2nc3ccccc3n2C2COC2)c(C)c(O)c1O` [Example 1, 6-methoxy-3-methyl-4-(1-(oxetan-3-yl)-1H-benzo[d]imidazol-2-yl)benzene-1,2-diol] stands 10000 to 100000 nM; under `CNC(=O)c1ccc2c(c1)nc(-c1cc(OC)c(O)c(O)c1F)n2C1(C)COC1` [Example 308, 2-(2-fluoro-3,4-dihydroxy-5-methoxyphenyl)-N-methyl-1-(3-methyloxetan-3-yl)-1H-benzo[d]imidazole-5-carboxamide], 100 to 1000 nM; under `COc1cc(-c2nc3ccc(-c4ncco4)cc3n2C2(C)COC2)c(F)c(O)c1O` [Example 296, 3-fluoro-6-methoxy-4-(1-(3-methyloxetan-3-yl)-6-(oxazol-2-yl)-1H-benzo[d]imidazol-2-yl)benzene-1,2-diol], no more than 100 nM.
Under `COc1cc(-c2nc3ccc(C(O)C(F)(F)F)cc3n2C2(C)COC2)c(F)c(O)c1O` (stereo not drawn) [Example 280, 3-fluoro-6-methoxy-4-(1-(3-methyloxetan-3-yl)-6-(2,2,2-trifluoro-1-hydroxyethyl)-1H-benzo[d]imidazol-2-yl)benzene-1,2-diol] stands 100 to 1000 nM; under `COc1cc(-c2nc3cc(N4CCN(C(=O)c5ccccc5)CC4)ccc3[nH]2)cc(O)c1O` [Example 31, (4-(2-(3,4-dihydroxy-5-methoxyphenyl)-1H-benzo[d]imidazol-5-yl)piperazin-1-yl)(phenyl)methanone], 1000 to 10000 nM; under `COc1cc(-c2nc3ccc(-c4ncccn4)cc3n2C2(C)COC2)c(F)c(O)c1O` [Example 267, 3-fluoro-6-methoxy-4-(1-(3-methyloxetan-3-yl)-6-(pyrimidin-2-yl)-1H-benzo[d]imidazol-2-yl)benzene-1,2-diol], no more than 100 nM.
With `COc1cc(-c2nc3cc(N4C[C@H]5CC[C@@H](C4)N5C(=O)c4ccccc4)ccc3[nH]2)cc(O)c1O` [Example 136], the IC50 was greater than 100000 nM.
